Measured values as given in ChEMBL document CHEMBL1201862, “PubChem BioAssay data set” (2004).
Calls of active or inactive are those of the source.

Key:
[1] = cytotoxicity in OVCAR8 ovarian cancer cells, dose response, PAX8 project, cell-based, plate reader, dry powder samples (AID 743197); type: functional; details: OVCAR-8
Paired box protein Pax-8 = Paired box protein Pax-8 (Homo sapiens, UniProt Q06710); experiment: inhibitors of PAX8-driven TPO luciferase reporter, dose response, RMG-I cells, cherry-pick (AID 687027); type: functional, cell-based;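 also: luciferase reporter driven by Pax8 target thyroperoxidase promoter measured by SteadyGlo luminescence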
[2] = THP-1 cell cytotoxicity, dose response, cytotoxicity control for Vif-APOBEC3G degradation inhibitor project, THP-1 cells (AID 1117359); type: functional; details: Human immunodeficiency virus 1, THP-1
[3] = biological target: T1, Endoribonuclease toxin MazF (Escherichia coli K-12, UniProt P0AE70); experiment: fluorescent RNA oligo signal without MazF, dose response, counter-screen for MazEF activator project, biochemical, fluorescence, single-stranded RNase substrate (AID 588502); type: functional
T1 sequence (P0AE70 whole entry): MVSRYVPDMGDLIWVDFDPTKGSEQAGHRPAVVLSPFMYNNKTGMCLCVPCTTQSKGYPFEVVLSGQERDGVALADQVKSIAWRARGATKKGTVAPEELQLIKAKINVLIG

[4] = biological target: T1, Endoribonuclease toxin MazF; experiment: MazF toxin RNase activators, dose response, biochemical, fluorescence, single-stranded RNA substrate, uHTS hits (AID 588481); type: functional
[5] = biological target: T2, Corticotropin-releasing factor receptor 2/Corticotropin-releasing factor-binding protein (Homo sapiens, UniProt P24387+Q13324); experiment: activators of CRF receptor 2 with binding protein – uHTS hits, confirmation (AID 602473); type: functional; details: read-out: EC50_Mean
T2 sequence (Q13324 whole entry): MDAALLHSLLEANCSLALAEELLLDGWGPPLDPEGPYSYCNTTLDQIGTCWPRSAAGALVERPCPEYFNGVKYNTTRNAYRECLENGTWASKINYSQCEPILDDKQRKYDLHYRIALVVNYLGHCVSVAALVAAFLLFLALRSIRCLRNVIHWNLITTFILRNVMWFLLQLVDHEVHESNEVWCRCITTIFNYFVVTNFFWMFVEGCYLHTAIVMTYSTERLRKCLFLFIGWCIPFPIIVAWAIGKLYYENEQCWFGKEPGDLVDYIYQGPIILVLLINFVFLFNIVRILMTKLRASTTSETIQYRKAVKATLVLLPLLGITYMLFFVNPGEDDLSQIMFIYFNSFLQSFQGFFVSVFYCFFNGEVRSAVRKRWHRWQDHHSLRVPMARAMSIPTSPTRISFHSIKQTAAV
T2 sequence (P24387 whole entry): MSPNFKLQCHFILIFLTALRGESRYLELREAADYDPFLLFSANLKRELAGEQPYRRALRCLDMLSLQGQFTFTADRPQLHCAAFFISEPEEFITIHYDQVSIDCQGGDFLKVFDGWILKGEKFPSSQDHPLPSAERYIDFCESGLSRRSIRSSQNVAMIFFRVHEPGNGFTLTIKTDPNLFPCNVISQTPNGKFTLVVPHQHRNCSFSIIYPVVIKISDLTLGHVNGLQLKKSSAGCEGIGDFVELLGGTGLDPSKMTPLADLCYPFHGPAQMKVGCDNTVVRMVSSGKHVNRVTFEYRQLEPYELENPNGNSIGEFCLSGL

[6] = biological target: Peroxisome proliferator-activated receptor gamma/Nuclear receptor coactivator 1 (Homo sapiens, UniProt P37231); type: functional;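 also: agonist potency as compounds enhance coactivator SRC-1 recruitment to PPARgamma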
[7] = biological target: Peroxisome proliferator-activated receptor gamma/Nuclear receptor coactivator 3 (Homo sapiens, UniProt P37231); type: functional;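 also: agonist potency for raising coactivator recruitment to the receptor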
Sequence of Peroxisome proliferator-activated receptor gamma/Nuclear receptor coactivator 3 (P37231 whole entry): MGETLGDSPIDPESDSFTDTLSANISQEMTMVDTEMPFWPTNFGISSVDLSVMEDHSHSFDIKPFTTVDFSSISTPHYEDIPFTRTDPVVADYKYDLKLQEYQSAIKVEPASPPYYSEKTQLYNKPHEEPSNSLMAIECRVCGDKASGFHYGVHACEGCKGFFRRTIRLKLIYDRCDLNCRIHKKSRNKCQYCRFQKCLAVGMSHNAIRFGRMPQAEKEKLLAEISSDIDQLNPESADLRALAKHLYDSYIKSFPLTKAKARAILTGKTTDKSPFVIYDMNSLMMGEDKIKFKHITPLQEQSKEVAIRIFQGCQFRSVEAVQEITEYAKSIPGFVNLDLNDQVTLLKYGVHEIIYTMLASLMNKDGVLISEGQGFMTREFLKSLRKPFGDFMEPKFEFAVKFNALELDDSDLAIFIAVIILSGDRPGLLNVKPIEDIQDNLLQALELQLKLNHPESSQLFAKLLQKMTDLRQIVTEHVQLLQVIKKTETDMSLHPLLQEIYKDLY
Sequence of Peroxisome proliferator-activated receptor gamma/Nuclear receptor coactivator 3 (Q9Y6Q9 whole entry, further chain): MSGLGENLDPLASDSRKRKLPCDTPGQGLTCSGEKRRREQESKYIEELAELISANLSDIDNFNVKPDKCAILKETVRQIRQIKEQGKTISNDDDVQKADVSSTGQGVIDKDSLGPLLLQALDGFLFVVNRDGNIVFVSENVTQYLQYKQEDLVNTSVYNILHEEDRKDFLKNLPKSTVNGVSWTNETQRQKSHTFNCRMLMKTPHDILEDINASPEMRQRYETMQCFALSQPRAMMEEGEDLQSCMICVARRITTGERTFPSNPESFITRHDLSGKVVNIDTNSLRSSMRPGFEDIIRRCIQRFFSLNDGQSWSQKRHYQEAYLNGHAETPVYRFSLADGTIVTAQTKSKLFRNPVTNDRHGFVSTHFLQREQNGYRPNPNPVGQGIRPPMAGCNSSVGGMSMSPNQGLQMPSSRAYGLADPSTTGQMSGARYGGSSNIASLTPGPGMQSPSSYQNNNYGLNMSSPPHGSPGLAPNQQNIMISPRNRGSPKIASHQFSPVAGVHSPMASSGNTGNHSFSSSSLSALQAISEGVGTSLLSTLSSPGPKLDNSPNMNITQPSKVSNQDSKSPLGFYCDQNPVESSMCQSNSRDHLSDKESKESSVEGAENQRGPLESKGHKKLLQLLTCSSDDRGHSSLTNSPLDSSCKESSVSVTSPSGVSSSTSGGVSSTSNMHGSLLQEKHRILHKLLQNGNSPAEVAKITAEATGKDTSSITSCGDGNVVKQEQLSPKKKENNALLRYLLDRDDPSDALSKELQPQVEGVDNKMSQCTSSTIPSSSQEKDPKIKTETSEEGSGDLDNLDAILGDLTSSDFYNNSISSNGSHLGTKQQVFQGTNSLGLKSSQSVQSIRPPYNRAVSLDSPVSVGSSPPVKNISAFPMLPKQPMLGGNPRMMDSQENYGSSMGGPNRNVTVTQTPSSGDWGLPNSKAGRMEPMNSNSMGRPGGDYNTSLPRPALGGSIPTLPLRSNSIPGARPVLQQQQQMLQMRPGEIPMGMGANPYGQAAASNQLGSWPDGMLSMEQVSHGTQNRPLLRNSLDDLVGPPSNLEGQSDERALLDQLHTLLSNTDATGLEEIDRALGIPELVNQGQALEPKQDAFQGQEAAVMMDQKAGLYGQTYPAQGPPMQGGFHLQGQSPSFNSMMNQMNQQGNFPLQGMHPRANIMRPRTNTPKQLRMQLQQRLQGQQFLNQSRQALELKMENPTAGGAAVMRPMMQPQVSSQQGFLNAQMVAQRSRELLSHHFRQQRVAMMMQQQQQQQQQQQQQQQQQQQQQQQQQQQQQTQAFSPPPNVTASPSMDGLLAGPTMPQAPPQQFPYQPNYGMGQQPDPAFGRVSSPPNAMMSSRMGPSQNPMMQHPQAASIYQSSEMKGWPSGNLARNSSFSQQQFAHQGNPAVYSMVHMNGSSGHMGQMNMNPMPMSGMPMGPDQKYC

[8] = biological target: T3, Replicative DNA helicase DnaB (Mycobacterium tuberculosis, UniProt P9WMR3); experiment: DnaB intein splicing inhibitors, dose response, biochemical, cell-free fluorescence (AID 449749); type: functional
T3 sequence (P9WMR3 whole entry): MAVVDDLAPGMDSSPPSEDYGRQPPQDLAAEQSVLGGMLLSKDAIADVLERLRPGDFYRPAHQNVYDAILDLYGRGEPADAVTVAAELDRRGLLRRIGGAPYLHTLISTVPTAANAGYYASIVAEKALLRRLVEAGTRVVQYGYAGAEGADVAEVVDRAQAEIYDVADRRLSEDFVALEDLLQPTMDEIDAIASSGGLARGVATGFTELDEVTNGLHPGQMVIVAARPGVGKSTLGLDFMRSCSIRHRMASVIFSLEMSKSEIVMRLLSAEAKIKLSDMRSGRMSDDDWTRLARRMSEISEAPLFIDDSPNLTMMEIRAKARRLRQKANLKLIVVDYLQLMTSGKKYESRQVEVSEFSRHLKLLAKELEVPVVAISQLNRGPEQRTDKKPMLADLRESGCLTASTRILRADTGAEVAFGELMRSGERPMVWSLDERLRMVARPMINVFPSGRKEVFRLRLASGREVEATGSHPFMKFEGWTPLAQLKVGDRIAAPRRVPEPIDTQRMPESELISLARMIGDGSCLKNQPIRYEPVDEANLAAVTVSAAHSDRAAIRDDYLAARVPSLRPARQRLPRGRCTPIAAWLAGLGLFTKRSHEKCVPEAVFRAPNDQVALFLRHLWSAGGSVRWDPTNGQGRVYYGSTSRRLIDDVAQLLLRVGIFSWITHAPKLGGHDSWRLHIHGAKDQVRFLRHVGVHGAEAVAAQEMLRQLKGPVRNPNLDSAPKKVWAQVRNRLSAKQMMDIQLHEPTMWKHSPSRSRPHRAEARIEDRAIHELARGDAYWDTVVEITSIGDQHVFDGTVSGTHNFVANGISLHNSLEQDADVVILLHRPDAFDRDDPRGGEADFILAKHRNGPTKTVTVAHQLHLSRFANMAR

[9] = biological target: Peroxisome proliferator-activated receptor gamma/Nuclear receptor coactivator 2 (Homo sapiens, UniProt P37231); type: functional;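 also: agonist potency for raising coactivator recruitment to the receptor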
Sequence of Peroxisome proliferator-activated receptor gamma/Nuclear receptor coactivator 2 (P37231 whole entry): as the sequence (P37231 whole entry) above
Sequence of Peroxisome proliferator-activated receptor gamma/Nuclear receptor coactivator 2 (Q15596 whole entry, further chain): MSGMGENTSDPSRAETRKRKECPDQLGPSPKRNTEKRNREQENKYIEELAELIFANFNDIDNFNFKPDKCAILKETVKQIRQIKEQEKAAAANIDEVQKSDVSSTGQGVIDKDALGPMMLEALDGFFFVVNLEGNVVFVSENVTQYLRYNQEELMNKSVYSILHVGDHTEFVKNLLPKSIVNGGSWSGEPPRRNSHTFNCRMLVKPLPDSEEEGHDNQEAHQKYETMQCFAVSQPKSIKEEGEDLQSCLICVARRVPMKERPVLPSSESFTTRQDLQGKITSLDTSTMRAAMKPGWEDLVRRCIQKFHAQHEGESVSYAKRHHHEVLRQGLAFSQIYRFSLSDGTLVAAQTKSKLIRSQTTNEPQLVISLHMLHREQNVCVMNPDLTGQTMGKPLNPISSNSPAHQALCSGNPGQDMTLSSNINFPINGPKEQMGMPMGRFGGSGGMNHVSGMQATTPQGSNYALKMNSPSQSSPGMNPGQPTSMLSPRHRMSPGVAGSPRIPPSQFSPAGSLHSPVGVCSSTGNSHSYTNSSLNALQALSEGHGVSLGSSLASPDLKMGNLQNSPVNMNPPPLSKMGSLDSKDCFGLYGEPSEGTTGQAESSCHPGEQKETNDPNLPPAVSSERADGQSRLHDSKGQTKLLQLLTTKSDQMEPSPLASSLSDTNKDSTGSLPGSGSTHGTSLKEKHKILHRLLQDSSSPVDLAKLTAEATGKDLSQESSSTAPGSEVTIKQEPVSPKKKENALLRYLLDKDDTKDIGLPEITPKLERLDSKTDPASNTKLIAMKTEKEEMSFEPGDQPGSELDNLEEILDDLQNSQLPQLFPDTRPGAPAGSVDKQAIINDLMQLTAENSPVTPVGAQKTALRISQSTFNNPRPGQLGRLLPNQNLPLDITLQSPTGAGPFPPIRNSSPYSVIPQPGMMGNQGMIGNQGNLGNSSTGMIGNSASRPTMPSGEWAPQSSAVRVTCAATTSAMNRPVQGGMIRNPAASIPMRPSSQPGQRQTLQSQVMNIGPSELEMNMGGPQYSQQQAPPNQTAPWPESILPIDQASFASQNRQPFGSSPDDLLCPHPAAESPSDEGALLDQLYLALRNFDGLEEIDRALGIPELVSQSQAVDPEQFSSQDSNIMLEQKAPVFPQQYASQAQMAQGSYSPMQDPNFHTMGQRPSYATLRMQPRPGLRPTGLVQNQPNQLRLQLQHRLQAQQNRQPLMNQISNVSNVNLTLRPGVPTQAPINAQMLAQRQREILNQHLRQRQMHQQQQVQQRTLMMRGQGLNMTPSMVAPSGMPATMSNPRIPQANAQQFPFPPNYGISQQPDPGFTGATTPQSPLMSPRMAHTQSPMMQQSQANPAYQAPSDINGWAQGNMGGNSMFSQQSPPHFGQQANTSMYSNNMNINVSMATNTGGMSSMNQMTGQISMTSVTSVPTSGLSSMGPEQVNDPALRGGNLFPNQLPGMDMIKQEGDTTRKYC

Protein RecA = biological target: T4, Protein RecA (Mycobacterium tuberculosis, UniProt P9WHJ3); experiment: Fluorescence Cell-Free Homogeneous Dose Retest to Identify Inhibitors of RecA-Intein Splicing Activity. [Related pubchem assays (depositor defined):AID2097, AID2223, AID489010, AID492950]; type: functional
T4 sequence (P9WHJ3 whole entry): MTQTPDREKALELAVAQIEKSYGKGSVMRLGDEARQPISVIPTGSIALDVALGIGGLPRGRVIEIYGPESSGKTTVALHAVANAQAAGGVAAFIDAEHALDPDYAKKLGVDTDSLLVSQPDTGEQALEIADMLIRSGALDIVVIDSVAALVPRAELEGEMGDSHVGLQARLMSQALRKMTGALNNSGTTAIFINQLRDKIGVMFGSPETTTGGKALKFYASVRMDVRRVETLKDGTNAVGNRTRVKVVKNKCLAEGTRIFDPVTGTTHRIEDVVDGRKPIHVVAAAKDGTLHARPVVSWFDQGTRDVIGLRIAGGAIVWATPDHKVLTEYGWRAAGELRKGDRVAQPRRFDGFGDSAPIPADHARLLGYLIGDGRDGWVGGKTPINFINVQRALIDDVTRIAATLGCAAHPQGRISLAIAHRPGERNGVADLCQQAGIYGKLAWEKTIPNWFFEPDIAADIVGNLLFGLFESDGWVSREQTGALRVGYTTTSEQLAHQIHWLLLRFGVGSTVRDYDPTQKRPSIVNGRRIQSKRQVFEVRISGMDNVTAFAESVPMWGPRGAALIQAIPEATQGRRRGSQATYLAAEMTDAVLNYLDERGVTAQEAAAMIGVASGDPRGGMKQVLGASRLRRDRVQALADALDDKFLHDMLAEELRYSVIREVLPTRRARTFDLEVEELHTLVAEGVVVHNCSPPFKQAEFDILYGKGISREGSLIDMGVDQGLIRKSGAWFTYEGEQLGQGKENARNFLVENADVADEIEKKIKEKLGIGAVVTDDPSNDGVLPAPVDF

[10] = LGR2 antagonists, dose response, cell-based, HEK293, CRE-luciferase reporter, cherry pick, set 2 (AID 743343); type: functional;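 also: transfected cells were stimulated with diluted bursicon conditioned medium after compound addition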
HEK293 [11] = experiment: inhibitors of LMP1-driven NF-kB reporter, dose response, cell-based, HEK293, luciferase, cherry-pick (AID 588343); type: functional; details: Homo sapiens
[12] = HEK293 cell cytotoxicity, dose response, cytotoxicity control, plate reader, cherry-picked samples (AID 743446); type: functional, cell-based
[13] = A549 cell cytotoxicity, dose response, cytotoxicity control, plate reader, cherry-pick, antagonist series (AID 743412); type: functional, cell-based
[14] = MC4R antagonists, dose response, counter-screen for LGR2 antagonist project, cell-based, plate reader, cherry pick (AID 743444); type: functional;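 also: transfected HEK 293 cells stimulated with alpha-MSH peptide; potency of inhibitors of the alpha-MSH evoked signal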
HEK293 [15] = experiment: NOD1 signaling inhibitors, primary screen, cell-based, luminescence, uHTS (AID 1578); type: functional; details: Homo sapiens
HEK293 [16] = experiment: cells; type: functional, cell-based; details: Homo sapiens
HEK293 [17] = experiment: NOD2 signaling inhibitors in MDP-stimulated cells, cell-based, uHTS, luminescence (AID 2001); type: functional; details: Homo sapiens
HEK293 [18] = experiment: cells; type: functional, cell-based; details: Homo sapiens; remark: listed apart in the source
[19] = intracellular Trypanosoma cruzi inhibitors in host cells – cell-based, plate reader, cherry-pick samples, set 3, dose response (AID 651818); type: functional;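 also: compounds incubated with infected cells for about four days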
Genome polyprotein = Genome polyprotein (dengue virus type 2, UniProt P29990); experiment: Dengue-2 NS5 methyltransferase inhibitors, primary screen, biochemical, confirmation dose response (AID 588689); type: functional
Sequence of Genome polyprotein (P29990 2492-3391 limits assumed): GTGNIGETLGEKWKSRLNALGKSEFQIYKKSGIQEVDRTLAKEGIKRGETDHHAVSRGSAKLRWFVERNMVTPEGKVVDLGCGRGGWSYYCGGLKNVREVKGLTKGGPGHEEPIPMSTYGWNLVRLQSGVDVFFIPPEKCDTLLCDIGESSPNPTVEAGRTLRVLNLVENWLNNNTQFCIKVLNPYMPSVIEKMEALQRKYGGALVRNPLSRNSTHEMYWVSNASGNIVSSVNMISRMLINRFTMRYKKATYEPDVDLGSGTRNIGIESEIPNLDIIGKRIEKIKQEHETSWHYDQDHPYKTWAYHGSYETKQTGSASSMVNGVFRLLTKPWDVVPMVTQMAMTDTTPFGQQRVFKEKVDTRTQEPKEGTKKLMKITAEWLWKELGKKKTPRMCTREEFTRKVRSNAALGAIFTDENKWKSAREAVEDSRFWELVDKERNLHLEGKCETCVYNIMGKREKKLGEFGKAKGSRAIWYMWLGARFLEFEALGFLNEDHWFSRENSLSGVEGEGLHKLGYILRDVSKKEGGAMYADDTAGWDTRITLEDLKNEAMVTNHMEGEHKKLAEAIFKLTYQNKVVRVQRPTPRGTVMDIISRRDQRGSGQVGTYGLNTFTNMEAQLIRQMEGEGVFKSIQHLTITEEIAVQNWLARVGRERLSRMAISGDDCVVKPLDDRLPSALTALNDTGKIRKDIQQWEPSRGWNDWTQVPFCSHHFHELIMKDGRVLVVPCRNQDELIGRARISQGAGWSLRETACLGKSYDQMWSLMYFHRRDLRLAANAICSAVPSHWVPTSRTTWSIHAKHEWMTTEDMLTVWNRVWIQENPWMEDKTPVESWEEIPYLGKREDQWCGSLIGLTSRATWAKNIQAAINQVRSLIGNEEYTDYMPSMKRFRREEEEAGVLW

Large T antigen = Large T antigen (Simian virus 40, UniProt P03070); type: functional, Betapolyomavirus macacae;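 also: Confirmatory-stage PubChem screen for compounds that inhibit SV40 T antigen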
[20] = NIH-3T3 fibroblast cytotoxicity, dose response, cytotoxicity control, cell-based, fluorescence, Alamar Blue, secondary assay (AID 2327); type: functional;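 also: NIH-3T3 mouse fibroblasts cultured with fluconazole at 8 µg/mL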
[21] = biological target: FAD-linked sulfhydryl oxidase ALR (Homo sapiens, UniProt P55789); experiment: inhibitors of human ALR sulfhydryl oxidase, dose response, biochemical, H2O2 detection, luminescence, cherry-pick (AID 493248)
Sequence of FAD-linked sulfhydryl oxidase ALR (P55789 whole entry): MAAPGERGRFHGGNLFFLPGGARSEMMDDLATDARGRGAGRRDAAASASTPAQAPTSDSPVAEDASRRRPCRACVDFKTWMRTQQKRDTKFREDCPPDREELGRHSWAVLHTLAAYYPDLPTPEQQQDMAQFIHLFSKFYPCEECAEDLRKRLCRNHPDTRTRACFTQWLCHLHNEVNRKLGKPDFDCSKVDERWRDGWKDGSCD

[22] = HepG2 cell cytotoxicity, dose response, cytotoxicity control, plate reader, cherry-pick, antagonist series (AID 743416); type: functional, cell-based
[23] = HEp-2 cell cytotoxicity, dose response, cytotoxicity control for RSV inhibitor project, HTS (AID 2410); type: functional; details: human respiratory syncytial virus

CCCC#Cc1ccc2c(c1)O[C@H](CN(C)Cc1ccccc1)[C@@H](C)CN([C@H](C)CO)S2(=O)=O
AC50 [1]: 58.3 µM (active)
AC50 (Paired box protein Pax-8): 16.2 µM (active)

CCCn1c(NC(=O)c2ccco2)nc2ccccc21
CC50 [2]: > 40 µM (active)

CCCCC(=O)Nc1ccc(C(=O)Nc2ccc(OC)cc2[N+](=O)[O-])cc1
EC50 [3]: > 99 µM (inactive)
EC50 [4]: > 99 µM (inactive)
EC50 [5]: 7.74 µM (active)

O=C(CSc1ncnc2c1nnn2Cc1ccccc1F)N1CCN(c2ccccc2)CC1
EC50 [6]: > 79.4 µM (not active)
EC50 [7]: > 79.4 µM (not active)
AC50 [8]: 3.65 µM (active)
EC50 [9]: > 79.4 µM (not active)
EC50 (Protein RecA): 5.75 µM (active)

Cc1csc(NC(=O)c2ccc(N3CCCC3=O)cc2)n1
AC50 [10]: 2.05 µM (active)
AC50 (HEK293 [11]): 1.52 µM (active)
AC50 [12]: > 52 µM (inactive)
AC50 [13]: > 52 µM (inactive)
AC50 [14]: 1.93 µM (active)

CN1CCN(c2ncnc3ccc(Br)cc23)CC1
EC50 (HEK293 [15]): 17.8 µM (active)
IC50 (HEK293 [16]): > 20 µM (inactive)
IC50 (HEK293 [17]): 6.08 µM (active)
IC50 (HEK293 [18]): 4.83 µM (active)

Cc1cc(-c2ccccc2)c2c3c(c(-c4ccccc4)n2n1)c(=O)n(C)c(=O)n3C
EC50 [3]: > 99 µM (inactive)
EC50 [4]: > 99 µM (inactive)

C[C@@H]1CCCCO[C@@H](CN(C)C(=O)Nc2ccc(C(F)(F)F)cc2)[C@@H](C)CN([C@H](C)CO)C(=O)c2cc(NS(=O)(=O)c3ccc(Cl)cc3)ccc2O1
AC50 [19]: 3.05 µM (active)

CC(=O)Nc1ccc(OCC(O)CNC2CCCC2)cc1 (stereo not given)
CC50 [2]: > 40 µM (active)

CC1=NN(Cc2ccccc2)C(=O)C1C(c1ccc(Cl)cc1)C(C#N)C#N (stereo not given)
IC50 (Genome polyprotein): 55.2 µM (active)
AC50 [8]: 5.34 µM (active)
EC50 (Protein RecA): 2.5 µM (active)

O=C(O)[C@H](Cc1ccccc1)N1C(=O)c2c(Cl)c(Cl)c(Cl)c(Cl)c2C1=O
IC50 (Genome polyprotein): 23.9 µM (active)

CCn1c(/C=C/c2ccc(O)c(O)c2)nc2ccccc2c1=O
EC50 [3]: 88.4 µM (inactive)
EC50 [4]: > 99 µM (inactive)
IC50 (Large T antigen): 35.6 µM (active)

CCOc1cccc2cc(C(=O)Nc3cc(C)on3)c(=O)oc12
EC50 [6]: 24.6 µM (not active)
EC50 [7]: 30.1 µM (not active)
EC50 [9]: 22.4 µM (not active)

COc1ccc(-c2cc(-c3cccs3)c(C#N)c(SCC(=O)NCc3ccccc3OC)n2)cc1
EC50 [6]: 10.3 µM (not active)
EC50 [7]: 13 µM (not active)
EC50 [9]: 8.22 µM (active)

COc1ccc(NC(=O)CC2Nc3cccc4cccc(c34)NC2=O)cc1 (stereo not given)
CC50 [2]: > 40 µM (active)

COC(=O)c1c(/N=C/N(C)C)sc2c1CCN(c1ncc(C(F)(F)F)cc1Cl)C2
EC50 [3]: > 99 µM (inactive)
EC50 [4]: > 99 µM (inactive)

O=C(NNc1ccc(O)cc1)c1ccc(Br)cc1
EC50 [20]: 28.9 µM (active)
IC50 (Genome polyprotein): > 100 µM (active)
AC50 [21]: 0.096 µM (active)

CC(OC(=O)c1cc2sccc2n1C)C(=O)NCc1cccs1 (stereo not given)
EC50 [6]: > 79.4 µM (not active)
EC50 [7]: > 79.4 µM (not active)
EC50 [9]: > 79.4 µM (not active)

Cc1cccc(-n2ncc3c(N4CCOCC4)ncnc32)c1
AC50 [10]: 3.92 µM (active)
AC50 [22]: > 52 µM (inactive)
AC50 (HEK293 [11]): 1.36 µM (active)
AC50 [13]: > 52 µM (inactive)
AC50 [14]: 3.94 µM (active)
CC50 [23]: 19.1 µM (active)

Cc1nn(-c2ccccn2)c2c1-c1nc(N3CCOCC3)ncc1CC2
EC50 [6]: > 79.4 µM (not active)
EC50 [7]: > 79.4 µM (not active)
EC50 [9]: > 79.4 µM (not active)
